Results published in PubChem BioAssay AID743264.
Activity calls are given as the source filed them.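 The calls were made as follows: active = mean IC50 for blocking HCV helicase binding to DNA at 50 µM or lower; inactive = mean IC50 above 50 µM.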

Target: HCV NS3 helicase (NS3h) (UniProt A3EZJ3)
Experiment: NS3h DNA-binding inhibition IC50 – biochemical, fluorescence polarization, ChemBridge library, dose response (AID 743264)
Settings: NS3h binding Cy5-dT15 DNA

Sequence of HCV NS3 helicase (NS3h) (A3EZJ3 1-631): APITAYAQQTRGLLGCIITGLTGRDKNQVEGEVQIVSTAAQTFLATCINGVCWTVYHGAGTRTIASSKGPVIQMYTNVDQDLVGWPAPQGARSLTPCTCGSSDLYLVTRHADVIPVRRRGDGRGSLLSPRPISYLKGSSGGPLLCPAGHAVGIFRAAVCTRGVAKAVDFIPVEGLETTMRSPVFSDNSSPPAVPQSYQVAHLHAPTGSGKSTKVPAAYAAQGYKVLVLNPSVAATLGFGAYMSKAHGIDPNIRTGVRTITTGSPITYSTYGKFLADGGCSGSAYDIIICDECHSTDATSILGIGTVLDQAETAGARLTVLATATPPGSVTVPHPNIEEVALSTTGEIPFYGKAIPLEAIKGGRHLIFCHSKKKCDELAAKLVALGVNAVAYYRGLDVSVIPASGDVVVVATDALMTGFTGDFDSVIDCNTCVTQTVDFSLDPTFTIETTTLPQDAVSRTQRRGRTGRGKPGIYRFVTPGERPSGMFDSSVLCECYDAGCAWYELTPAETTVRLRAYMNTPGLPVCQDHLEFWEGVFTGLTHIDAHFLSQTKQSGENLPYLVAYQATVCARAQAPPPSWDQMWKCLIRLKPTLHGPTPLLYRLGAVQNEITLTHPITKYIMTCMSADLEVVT

O=C1C=CC(=O)N1c1cccc([N+](=O)[O-])c1
IC50: inactive

Cc1ccc(N2C(=O)C=CC2=O)c(Br)c1
IC50: inactive
